In PubChem BioAssay AID849 (SRMLSC, 2007):
Active and inactive are the calls of the source. How the calls were made is not given here.

Each compound was assayed on Saccharomyces cerevisiae lifespan shortening, growth inhibition (assay: yeast lifespan shortening compounds, dose response (AID 849);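 further: yeast growth read as optical density after two days at 30 degrees C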).

Row | Compound | IC50
1 | Cc1ccc(O)c(-c2cc(-c3cccc(F)c3)n[nH]2)c1 | 19.3 µM
2 | c1ccc(-c2ccc(-c3ccccn3)nn2)nc1 | 49.3 µM
3 | CC/C(C)=N/Nc1cccc([N+](=O)[O-])c1 | 7.6 µM
4 | CCN1/C(=C/c2ccc3cc(C)ccc3[n+]2CC)Sc2ccccc21 | 4.48 µM
5 | NC(=O)c1ccc(N=Cc2ccc([N+](=O)[O-])s2)cc1 | 7.91 µM
6 | CCCCn1c(/N=C/c2c[nH]c3ccccc23)nc2ccccc21 | > 100 µM (inactive)
7 | C=C(C)COc1ccc(-c2[nH]ncc2-c2ccccc2OC)c(O)c1 | > 100 µM (inactive)
8 | c1ccc(-c2nc3nonc3nc2-c2ccccc2)cc1 | > 100 µM (inactive)
9 | CCOCC(=O)Nc1nc2c(s1)C(=O)CC(C)(C)C2 | > 100 µM (inactive)
10 | Cc1ccc(/C=C2\C(=O)Nc3ccccc32)o1 | > 100 µM (inactive)
11 | COc1ccc(-n2c(Cc3cccn3C)nnc2SCC(=O)N2CCCC2)cc1 | > 100 µM (inactive)
12 | Cc1ccc(-c2nn3c(C)nnc3s2)cc1NC(=O)c1ccc(OC(C)C)cc1 | > 100 µM (inactive)
13 | Cc1cc2nc(C)n3c4ccccc4nc3n2n1 | 15.4 µM
14 | CCOc1ccccc1C1CC(c2ccc(Br)cc2)Nc2nc(N)nn21 (stereo not given) | > 100 µM (inactive)
15 | O=C(CCSc1nnc(-c2ccncc2)o1)Nc1ccc(Cl)cc1 | 37.7 µM
16 | CCN(CC)S(=O)(=O)c1ccc(NC(=O)CSc2cccc[n+]2[O-])cc1 | 24.2 µM
17 | COc1ccc(-c2nnc3sc(C(C)N4C(=O)c5ccccc5C4=O)nn23)cc1 (stereo not given) | > 100 µM (inactive)
18 | Oc1c(Br)cc(Cl)cc1C=Nc1ccccc1Br | 27.1 µM
19 | c1ccc2c(c1)nnn1c3ccccc3nc21 | > 100 µM (inactive)
20 | O=C(O)CSc1cccc[n+]1[O-] | 33.9 µM
21 | COc1ccc(-c2nnc3c4ccccc4c(C)nn23)cc1 | > 100 µM (inactive)
22 | Cn1c(SCC(=O)Nc2ccccc2)nc(O)cc1=O | 50.1 µM
23 | CNC(=O)Oc1cccc(-c2cn3cc(OC(=O)NC)ccc3n2)c1 | 10.3 µM
24 | O=C1CCN2C=Nc3cccc4ccc1c2c34 | 32.9 µM

Row | Compound | IC50
25 | CCN1CCN(c2ncnc3c2sc(=S)n3-c2ccccc2)CC1 | > 100 µM (inactive)
26 | Cc1ccccc1C(=O)NNC(=S)NC(=O)COc1ccccc1 | 46.3 µM
27 | C=C(C)COc1ccc(-c2[nH]ncc2-c2ccccc2)c(O)c1 | 20.4 µM
28 | O=C(O)c1ccc(SCc2cnc(Cl)s2)cc1 | 7.4 µM
29 | Cc1cc(=O)[nH]c(-n2nc(C)cc2C)n1 | 14.3 µM
30 | c1ccc(-c2nc3c(ccc4ccccc43)[nH]2)nc1 | 30.7 µM
31 | CCCc1cc(-c2n[nH]c(=S)n2C(C)c2ccccc2)cs1 (stereo not given) | > 100 µM (inactive)
32 | O=C(C1=C(O)/C(=C/c2ccc(O)cc2)CCC1)C(F)(F)F | > 100 µM (inactive)
33 | C=CCSC(=C(C#N)C#N)c1cc2c([nH]1)CCCC2 | > 100 µM (inactive)
34 | O=C(O)c1cc(-c2ccc(/C=N/Nc3ccc(Cl)cc3)o2)ccc1Cl | 11.7 µM
35 | Cc1nn2c(-c3ccncc3)nnc2c2ccccc12 | 6.35 µM
36 | OCc1ccc(O)c2ncccc12 | 32.2 µM
37 | Cc1ccc(-n2c(Cl)c(Cl)nc(Cl)c2=O)cc1 | 14.6 µM
38 | CCn1c(=O)c(C(=O)Nc2nc3ccccc3[nH]2)c(O)c2ccccc21 | > 100 µM (inactive)
39 | Nc1nsc2ccccc12 | 24.3 µM
40 | CC(C)(C)c1ccc(C(=O)NC(=S)NNC(=O)c2cccs2)cc1 | 42.2 µM
41 | O=[N+]([O-])c1cccc(/C=N/n2cnnc2)c1O | 19.7 µM
42 | N/C(=N\OC(=O)c1ccc(Cl)cc1Cl)c1ccccc1 | > 100 µM (inactive)
43 | CC1=C/C(=N\OS(=O)(=O)c2ccccc2)C(C)=CC1=O | 1.54 µM
44 | Cc1nn(-c2ccc(F)cc2)c2sc(C(=O)O)cc12 | 30.9 µM
45 | CN1C(=O)/C(=N/OC(=O)c2ccccc2)c2ccccc21 | > 100 µM (inactive)
46 | Cc1csc(NC(=O)Cc2coc3cc(C)c(C(C)C)cc23)n1 | > 100 µM (inactive)
47 | Oc1c(I)cc(I)c2cccnc12 | 23.9 µM
48 | CC(C)(C)c1ccc(NC(=O)COC(=O)c2ccc([N+](=O)[O-])s2)cc1 | 34 µM

Row | Compound | IC50
49 | O=C1Cc2ccccc2C(=O)N1CCc1ccccc1 | > 100 µM (inactive)
50 | O=C(CC(O)(C(F)(F)F)C(F)(F)F)Nc1ccc(Cl)c(Cl)c1 | 12 µM
51 | CCC(C)N1CC23C=CC(O2)C(C(=O)OC)C3C1=O (stereo not given) | > 100 µM (inactive)
52 | CC1(C)C(C=C(Cl)Cl)C1C(=O)Nc1ccc([N+](=O)[O-])cc1 (stereo not given) | 51.3 µM
53 | N#Cc1ccccc1NC(=O)c1ccc2c(Cl)c3c(nc2c1)CCCC3 | > 100 µM (inactive)
54 | Cc1ccc(-c2nnc3ccc(SC(C)C(=O)O)nn23)cc1 (stereo not given) | > 100 µM (inactive)
55 | Oc1c(N=Nc2ccccn2)ccc2ccccc12 | 15.5 µM
56 | O=S(=O)(Nc1ccc(-n2cccc2)cc1)c1ccc(Cl)cc1Cl | > 100 µM (inactive)
57 | COc1ccc(-c2nncnn2)cc1 | 10 µM
58 | c1ccc(N(c2ccccc2)c2nc(-n3ccnc3)nc(-n3ccnc3)n2)cc1 | > 100 µM (inactive)
59 | Cc1cc(-c2n[nH]c(=S)n2/N=C/c2cc([N+](=O)[O-])ccc2Cl)n[nH]1 | > 100 µM (inactive)
60 | Oc1cccc2ccc(Nc3ccccn3)nc12 | 14 µM
61 | O=c1oc2ccccc2c(O)c1/C=C1\C=Nc2ccccc21 | 18 µM
62 | O=C(/C=C/N1CCOCC1)c1ccc(-c2ccccc2)cc1 | 11.5 µM
63 | O=c1c2c([N+](=O)[O-])cc([N+](=O)[O-])cc2sn1-c1ccc(Br)cc1 | > 100 µM (inactive)
64 | Cc1ccc(-n2nnc3c(=O)n(CC(=O)N4CCC(C)CC4)cnc32)cc1 | > 100 µM (inactive)
65 | COc1ccc(C(=O)/C=C/Nc2ccc(C)cn2)cc1OC | > 100 µM (inactive)
66 | CCCCCCCCCCCCCCCC[n+]1ccc(/C=N/O)cc1 | 1.54 µM
67 | Cc1ccc2nc3c(nc2c1)-c1ccccc1C3=O | 30.3 µM
68 | CN(C)c1ccc(/C=C/c2ccc3ccccc3[n+]2C)cc1 | 26.4 µM
69 | O=C1OCC(CO)(CO)N=C1NNc1ccccc1Cl | 6.45 µM
70 | CCOc1cccc(-c2nnc3n2N=C(c2cc(OC)ccc2OC)CS3)c1 | > 100 µM (inactive)
71 | CC(N=Cc1cccc(O)c1O)c1ccccc1 (stereo not given) | 9.02 µM
72 | O/N=C/c1cc(Cl)ccc1OCc1cccc2ccccc12 | > 100 µM (inactive)

Row | Compound | IC50
73 | O=C(O)c1ccccc1Nc1ccc([N+](=O)[O-])cc1 | 10.8 µM
74 | COc1ccc(-c2cc3nc(C)cc(N4CC(C)CC(C)C4)n3n2)cc1 (stereo not given) | 42.2 µM
75 | Cc1nc2ccc(C(=O)O)cc2[nH]1 | > 100 µM (inactive)
76 | S=C(NCc1ccc(Cl)cc1)NC12CC3CC(CC(C3)C1)C2 | > 100 µM (inactive)
77 | O=C1c2ccccc2C(=O)c2c1cccc2N1CCOCC1 | 46.6 µM
78 | O=C(CCc1ccccc1)NNC(=S)NC(=O)c1ccccc1 | > 100 µM (inactive)
79 | Cc1ccc(OC(=S)Nc2ccc(O)cc2)cc1 | 14 µM
80 | S=C(NCC1CCCCC1)Nc1ccc(Oc2ccccc2)cc1 | > 100 µM (inactive)
81 | Cc1cccc(/C=C/C(=O)c2cc(Br)ccc(=O)c2O)c1 | 8.97 µM
82 | CCN1/C(=C/c2ccc3ccc(C)cc3[n+]2CC)Sc2ccccc21 | 21.4 µM
83 | O=C1NC(c2ccccn2)Nc2sc3c(c21)CCC3 (stereo not given) | > 100 µM (inactive)
84 | c1ccc2nc3c(nc2c1)[nH]c1ccccc13 | 25 µM
85 | CCOC(=O)c1sc(=S)n(-c2cc(F)ccc2F)c1N | > 100 µM (inactive)
86 | COc1ccc2cc(C(=O)O)ccc2c1 | 13.9 µM
87 | COc1ccccc1NC(=O)Cc1noc(CSc2cccc[n+]2[O-])n1 | 23.2 µM
88 | Cc1ccc(-c2cc(C(=O)N3N=C(C(F)F)CC3(O)C(F)F)c3ccccc3n2)cc1C (stereo not given) | > 100 µM (inactive)
89 | CC1=C(C)/C(=N\OS(=O)(=O)c2ccccc2)C=CC1=O | 30.3 µM
90 | C=CCN1C(C(=O)c2ccccc2)=C(OC(=O)COc2ccccc2)c2ccccc2S1(=O)=O | 26.9 µM
91 | COc1cc(Br)cc(/C=N/c2ncn[nH]2)c1O | 28.8 µM
92 | COC(=O)CSCc1nc2ccccc2[nH]c1=O | > 100 µM (inactive)
93 | CC(=O)/C(=N\Nc1ccc(C)cc1)N1CCOCC1 | 11.1 µM
94 | Oc1ccc(COCc2ccccc2)c2cccnc12 | 6.43 µM
95 | O=C(CSc1cccc[n+]1[O-])c1cc2ccccc2o1 | 2.97 µM
96 | Cc1cccc(CSc2cccc3cccnc23)c1 | 33.1 µM

Row | Compound | IC50
97 | COc1ccc(NC(=O)C2CCCN2S(=O)(=O)c2cccc3cccnc23)c(OC)c1 (stereo not given) | 40.5 µM
98 | Cc1ccc(Oc2nc(CN3CCOCC3)nc3sc4c(c23)CCC(C)C4)cc1C (stereo not given) | 26.1 µM
99 | Clc1ccc2nnnc(-c3ccccc3)c2c1 | 38.8 µM
100 | COc1cc(OC)nc(NC(=O)CS(=O)(=O)c2ccccc2)n1 | 33.4 µM
101 | CCCCNC(=S)NCc1ccc2c(c1)cc(C)n2C | > 100 µM (inactive)
102 | CNC(=O)c1cc2c(ccc3ccccc32)oc1=N | 12.4 µM
103 | Cc1cccc(OCCn2cc(/C=N/NC(=O)c3ccncc3)c3ccccc32)c1 | > 100 µM (inactive)
104 | CC(Sc1cccc[n+]1[O-])C(=O)Nc1cccc(S(=O)(=O)N2CCOCC2)c1 (stereo not given) | 6.11 µM
105 | Cc1nnc(C)n1/N=C/c1cc(Br)cc(Br)c1O | 9.23 µM
106 | Cc1cccc(OCCCOc2cccc3cccnc23)c1C | 26.5 µM
107 | CC1(CCc2ccccc2)NC(=S)N(c2ccccc2)N1 (stereo not given) | 14.1 µM
108 | Cc1ccc(C(=O)c2c(C)oc3c2C(=O)C(=O)c2ccccc2-3)cc1 | 48.1 µM
109 | Cc1cccc(C(=O)NC(=S)NNC(=O)c2cccs2)c1 | 30.6 µM
110 | CCCCCCCCC/C(=N\O)c1ccccn1 | 4.51 µM
111 | Cn1c(=O)c(C(=O)Nc2ncccn2)c(O)c2ccccc21 | 33 µM
112 | COc1cc(C(=O)NC(=S)NNC(=O)c2cnccn2)cc(OC)c1OC | 12.8 µM
113 | Oc1ccc(N=Nc2cccc(Cl)c2)cc1C=Nc1ccc(N2CCOCC2)cc1 | > 100 µM (inactive)
114 | O=S(=O)(NC1CC2CCC1C2)c1ccc(Br)s1 (stereo not given) | 2.07 µM
115 | CCOC(=O)c1c(N)sc(C(O)(C(F)(F)F)C(F)(F)F)c1-c1ccc(F)cc1 | > 100 µM (inactive)
116 | CCc1cc2c(cc(C(=O)O)n2C)s1 | 38.2 µM
117 | COc1cc(/C=C2/C(=O)ON=C2c2ccccc2)ccc1O | 8.49 µM
118 | C/C(=N\Nc1ccc([N+](=O)[O-])cc1)c1ccc(N)cc1 | 40.2 µM
119 | O=C1C=C(c2ccc(Cl)cc2)C(=O)N1Nc1ccccc1 | 4.66 µM
120 | O=C1NC(=S)N(c2ccccc2F)C(=O)/C1=C\c1cccs1 | 18.6 µM
